# Test results reported in publication PMC6013791 (Chemical Science, 2016).
# pEC50: −log10 of the molar value. Where a SMILES comes first, the peptide text is derived from it. Bridges are numbered along the chain shown (N, C = ends). [ ]: non-standard residue; d: D form. hArg = N=C(N)NCCCC[C@H](N)C(=O)O; Mpa = O=C(O)CCS
# Tests used:
# CXCR4 [1] = biological target: T1, CXCR4 (Homo sapiens, UniProt P61073); conditions: cited from earlier work
# CXCR4 [2] = biological target: T1, CXCR4; assay: Ligand efficiency from ChEMBL19 CXCR4 ligand data; conditions: LE = 1.4pAffinity/nheavy_atoms, from ChEMBL19 CXCR4 data ref 28
# CXCR4 [3] = biological target: T1, CXCR4; assay: CXCR4 arrestin assay; format: cell-based; conditions: 30 μM, exploitive and hit expansion iterations
# T1 sequence (P61073 whole entry): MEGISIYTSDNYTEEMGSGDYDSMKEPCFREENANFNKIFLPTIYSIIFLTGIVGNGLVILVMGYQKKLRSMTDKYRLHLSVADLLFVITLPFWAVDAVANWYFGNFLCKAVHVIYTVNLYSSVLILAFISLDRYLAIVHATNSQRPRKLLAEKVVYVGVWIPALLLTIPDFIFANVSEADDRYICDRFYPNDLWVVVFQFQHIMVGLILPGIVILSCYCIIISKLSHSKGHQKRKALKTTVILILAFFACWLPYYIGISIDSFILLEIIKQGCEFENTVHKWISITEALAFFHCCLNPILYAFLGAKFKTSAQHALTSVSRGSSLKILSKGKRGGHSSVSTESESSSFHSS
SMILES,ligand efficiency (LE) (CXCR4 [2]),further results
C[C@H](NC(=O)[C@H](CCCN=C(N)N)NC(=O)c1ccc(CNCc2ccccn2)cc1)c1cccc2ccccc12 [KRH-1636],,pEC50 (CXCR4 [1]): 7.74
c1ccc(NCc2ccc(CNc3ccccn3)cc2)nc1 [ChEMBL237830],0.56,
c1cc2nc(c1)CCNCCN(Cc1ccc(CN3CCNCCc4cccc(n4)CCNCC3)cc1)CCNCC2 [CHEMBL1202231],0.32,
N=C(N)NCCCC[C@@H]1NC(=O)CCSSC[C@@H](C(N)=O)NC(=O)[C@@H]2CCCN2C(=O)[C@H](Cc2c[nH]c3ccccc23)NC(=O)[C@H](CC(=O)O)NC(=O)CNC1=O [integrilin] ([Mpa][hArg]GDWPC-NH2; disulfide 1-7 (inferred)),,activity in the arrestin assay (CXCR4 [3]): lack of activity
